Source: publication PMC6125430, “Structural Analysis of Redox-sensing Transcriptional Repressor Rex from Thermotoga maritima” (Scientific Reports, 2018)

What was measured:
TmRex = biological target: T1, TmRex (Thermotoga maritima, UniProt Q9WY16); assay: X-ray crystallography of the complex; format: binding; conditions: 1:1 per C-terminal domain
T1 construct: gene rex1; full-length gene (pET28b NdeI/XhoI), N-terminal His6 tag (tag removal told only for SeMet protein), E. coli BL21(DE3) Star pLysS; homodimer; primers encode N-terminal MAEKIPK

[1] = biological target: the molecule itself; assay: crystal structure; apo TmRex, native protein, 2.0 Å; sitting-drop vapour diffusion at 296 K, 200 mM potassium chloride, 20% (w/v) PEG 3,350; four subunits (two homodimers) in the asymmetric unit

`NC(=O)C1=CN([C@@H]2O[C@H](COP(=O)(O)OP(=O)(O)OC[C@H]3O[C@@H](n4cnc5c(N)ncnc54)[C@H](O)[C@@H]3O)[C@@H](O)[C@H]2O)C=CC1` [NADH] was tested, and the “X-ray crystallography of the complex” value (TmRex; co-crystallization with 1 mM NADH, 2.45 A, closed form) was “NADH-bound TmRex crystals were grown by co-crystallization”.

With `NC(=O)c1ccc[n+]([C@@H]2O[C@H](COP(=O)(O)OP(=O)(O)OC[C@H]3O[C@@H](n4cnc5c(N)ncnc54)[C@H](O)[C@@H]3O)[C@@H](O)[C@H]2O)c1` [NAD^+] the “X-ray crystallography of the complex” value (TmRex; apo crystals soaked with 1 mM NAD+ for 10 h, 2.2 A, open form) was “The structure of NAD^+-bound TmRex was refined with crystallographic Rwork and Rfree values”.

B1: Redox-sensing transcriptional repressor Rex from Thermotoga maritima (natural protein, UniProt Q9WY16 1-208, looked up)
chain: MAEKIPKPVSKRLVSYYMCLERLLDEGVEVVSSEELARRLDLKASQIRKDLSYFGEFGKRGVGYNVEHLYDAIGEILGVKKEWKLVVVGAGNIGRAVANYTVMKEKGFRIIGIFDSDPSKIGKEAAPGLTVSDVSELEKFVEEHGVEIGVIAVPAEHAQEIAERLEKAGIKGILNFAPVKIKVSVPVENIDITASLRVLTFEIVRRNS
notes: Rex (TM0169) of Thermotoga maritima, rex gene amplified from genomic DNA with primers from the ATG start codon to the stop codon; residues 1-208 (N-terminal domain 1-77, linker loop 78-83, C-terminal domain 84-208); Cloned into pET28b(+) with NdeI and XhoI; for the native protein in the deposited structures no removal is told; also called TmRex; TM0169; source: E. coli BL21 (DE3) star pLysS, …
B1: binds [1].
